Experimental data published in the supplement of paper PMC10307832.

Experiments:
Assay in all cases: relative viability (nuclei count vs DMSO), 5 days (fraction); higher = more cells survive
NCI-H520 = system: NCI-H520
Procedure, shortened: (§1)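 Values are medians from duplicate plates. Each reflects relative viability, defined as the nuclei count of treated wells over that of vehicle wells. Lung cancer cell lines in 1536-well plates were pin-tool dosed one day after seeding with one drug alone or with a fixed anchor-drug dose plus five library-drug doses (not always all listed) in √10 steps, then fixed, stained and imaged at 4× after 5 days.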

RERF-LC-KJ = system: RERF-LC-KJ
Procedure, shortened: as §1

Calu-6 = system: Calu-6
Procedure, shortened: as §1

IA-LM = system: IA-LM
Procedure, shortened: as §1

NCI-H1651 = system: NCI-H1651
Procedure, shortened: as §1

NCI-H1703 = system: NCI-H1703
Procedure, shortened: as §1

EBC-1 = system: EBC-1
Procedure, shortened: as §1

NCI-H1299 = system: NCI-H1299
Procedure, shortened: as §1

C=C1C(=O)O[C@@H](CCCCCCCC)[C@@H]1C(=O)O [C-75] + CC(C)C[C@H](NC(=O)[C@H](Cc1ccccc1)NC(=O)c1cnccn1)B(O)O [Bortezomib] (partner 0.002 µM)
relative viability (NCI-H520; first compound 0.08 µM): 0.442
relative viability (NCI-H520; first compound 0.253 µM): 0.425
relative viability (NCI-H520; first compound 0.8 µM): 0.578
relative viability (NCI-H520; first compound 2.53 µM): 0.337
relative viability (NCI-H520; first compound 8 µM): 0.58
relative viability (RERF-LC-KJ; first compound 0.08 µM): 1.17
relative viability (RERF-LC-KJ; first compound 0.253 µM): 1.09
relative viability (RERF-LC-KJ; first compound 0.8 µM): 1.21
relative viability (RERF-LC-KJ; first compound 2.53 µM): 1.09
relative viability (RERF-LC-KJ; first compound 8 µM): 1.31
relative viability (Calu-6; first compound 0.08 µM): 1.01
relative viability (Calu-6; first compound 0.253 µM): 1.16
relative viability (Calu-6; first compound 0.8 µM): 1.02
relative viability (Calu-6; first compound 2.53 µM): 0.92
relative viability (Calu-6; first compound 8 µM): 0.855
relative viability (IA-LM; first compound 0.08 µM): 0.79
relative viability (IA-LM; first compound 0.253 µM): 0.61
relative viability (IA-LM; first compound 0.8 µM): 0.728
relative viability (IA-LM; first compound 2.53 µM): 0.736
relative viability (IA-LM; first compound 8 µM): 0.428
relative viability (NCI-H1651; first compound 0.08 µM): 0.92
relative viability (NCI-H1651; first compound 0.253 µM): 0.894
relative viability (NCI-H1651; first compound 0.8 µM): 0.875
relative viability (NCI-H1651; first compound 2.53 µM): 0.843
relative viability (NCI-H1651; first compound 8 µM): 0.886
relative viability (NCI-H1703; first compound 0.08 µM): 0.506
relative viability (NCI-H1703; first compound 0.253 µM): 0.435
relative viability (NCI-H1703; first compound 0.8 µM): 0.31
relative viability (NCI-H1703; first compound 2.53 µM): 0.292
relative viability (NCI-H1703; first compound 8 µM): 0.192
relative viability (EBC-1; first compound 0.08 µM): 0.57
relative viability (EBC-1; first compound 0.253 µM): 0.512
relative viability (EBC-1; first compound 0.8 µM): 0.498
relative viability (EBC-1; first compound 2.53 µM): 0.505
relative viability (EBC-1; first compound 8 µM): 0.221
relative viability (NCI-H1299; first compound 0.08 µM): 1.07
relative viability (NCI-H1299; first compound 0.253 µM): 0.932
relative viability (NCI-H1299; first compound 0.8 µM): 1.01
relative viability (NCI-H1299; first compound 2.53 µM): 1.02
relative viability (NCI-H1299; first compound 8 µM): 1.07
